Our source for the GI50 and TGI values is PubChem BioAssay (NCI).

Structures are written as SMILES.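 48-hour exposure; five concentrations; linearly interpolated endpoints. Here, GI50 denotes the concentration required for 50% inhibition of growth. TGI: total growth inhibition.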 Where only a bound is given, the exact number is not on record here.

By GI50 is commonly meant the concentration at which growth is held to half of that of the control. For orientation: TGI means the concentration giving total growth inhibition. Higher therefore signals less potent growth arrest.

Among the test systems are SR leukemia; RPMI-8226 leukemia; SK-OV-3 ovarian; CAKI-1 renal; NCI/ADR-RES ovarian; HOP-62 NSCLC; 786-0 renal; SF-539 CNS; SK-MEL-5 melanoma; OVCAR-5 ovarian.
Common to all, as to assay: DTP human tumour cell line panel, 48 h

Turning to `Cc1c(C(=N)C(C#N)C#N)c(=N)oc2c1ccc1ccccc12`, the GI50 in the experiment with SR leukemia was 7.64 µM; with RPMI-8226 leukemia it was 20.8 µM; in the experiment with SK-OV-3 ovarian, 21.3 µM; in the experiment on CAKI-1 renal, 7.51 µM; in the experiment on NCI/ADR-RES ovarian it was 25.2 µM; with HOP-62 NSCLC, 21.7 µM. The GI50 was 29.1 µM in the experiment on 786-0 renal, 20.6 µM in the experiment on SF-539 CNS, 13.3 µM with SK-MEL-5 melanoma and 39.5 µM in the experiment with OVCAR-5 ovarian. For the same compound, the TGI in the experiment with SR leukemia is more than 100 µM; in the experiment on RPMI-8226 leukemia, 78.3 µM; with SK-OV-3 ovarian, 63.3 µM; in the experiment on CAKI-1 renal, more than 100 µM; in the experiment with NCI/ADR-RES ovarian it was more than 100 µM; in the experiment with HOP-62 NSCLC, 77.6 µM. The TGI with 786-0 renal was more than 100 µM; in the experiment with SF-539 CNS it was 71.5 µM; in the experiment on SK-MEL-5 melanoma, 29.8 µM; with OVCAR-5 ovarian it was more than 100 µM.

On to `O=C(Nc1cccc(-n2cc(-c3ccncc3)c(-c3cc(O)cc(Cl)c3)n2)c1)c1ccc(N2CCOCC2)c(C(F)(F)F)c1`, for which the 50% growth inhibitory concentration (GI50) is 0.338 µM in the experiment with SR leukemia; 0.398 µM in the experiment with RPMI-8226 leukemia; 9.63 µM in the experiment on SK-OV-3 ovarian; 1.1 µM in the experiment on CAKI-1 renal; 4.59 µM with NCI/ADR-RES ovarian; 3.59 µM in the experiment on HOP-62 NSCLC. The GI50 with 786-0 renal is 2.24 µM; with SF-539 CNS it was 1.44 µM; in the experiment with SK-MEL-5 melanoma it was 2.33 µM; with OVCAR-5 ovarian it was 14.8 µM. In addition, the TGI is 1.83 µM with SR leukemia; 2.31 µM in the experiment on RPMI-8226 leukemia; more than 100 µM in the experiment with SK-OV-3 ovarian; 6 µM in the experiment on CAKI-1 renal; more than 100 µM with NCI/ADR-RES ovarian; 58.2 µM with HOP-62 NSCLC. Also, the total growth inhibition concentration (TGI) in the experiment with 786-0 renal came to 10.1 µM; in the experiment on SF-539 CNS it was 4.47 µM; in the experiment on SK-MEL-5 melanoma, 8.49 µM; in the experiment with OVCAR-5 ovarian it was 39.6 µM.

In the case of `CC1(C)N=C(N)N=C(N)N1c1ccc(CCC(=O)Nc2ccc(S(=O)(=O)F)cc2)cc1`, the 50% growth inhibitory concentration (GI50) was 0.209 µM in the experiment on SR leukemia; 1.22 µM in the experiment with RPMI-8226 leukemia; more than 70.2 µM in the experiment with SK-OV-3 ovarian; 2.33 µM with CAKI-1 renal; 98.3 µM in the experiment on NCI/ADR-RES ovarian; 8.62 µM in the experiment with HOP-62 NSCLC. Also, the GI50 is 0.529 µM with 786-0 renal, 2.94 µM in the experiment on SF-539 CNS, 0.774 µM in the experiment with SK-MEL-5 melanoma and 0.599 µM in the experiment with OVCAR-5 ovarian. Further, the concentration for total growth inhibition (TGI) in the experiment on SR leukemia, with RPMI-8226 leukemia, in the experiment on SK-OV-3 ovarian, with CAKI-1 renal, in the experiment on NCI/ADR-RES ovarian and with HOP-62 NSCLC was more than 100 µM throughout. Also, the TGI in the experiment with 786-0 renal is more than 100 µM; in the experiment with SF-539 CNS, more than 94.1 µM; with SK-MEL-5 melanoma, 57 µM; with OVCAR-5 ovarian, more than 100 µM.

Consider `CC(Br)C(=O)NC(CO)C(=O)O` (stereo not drawn), for which the TGI in the experiment on SR leukemia, with RPMI-8226 leukemia, in the experiment with SK-OV-3 ovarian, in the experiment on CAKI-1 renal, in the experiment on NCI/ADR-RES ovarian and with HOP-62 NSCLC was more than 100 µM each time. Also, the concentration for total growth inhibition (TGI) with 786-0 renal, in the experiment on SF-539 CNS, in the experiment on SK-MEL-5 melanoma and in the experiment on OVCAR-5 ovarian was more than 100 µM each time.

As to `CCNc1nc(O)c(/C=C2\C=Nc3ncccc32)s1`, the GI50 with SR leukemia was 1.6 µM; in the experiment with RPMI-8226 leukemia it was 11.7 µM; with SK-OV-3 ovarian, 2.86 µM; in the experiment on CAKI-1 renal, 3.66 µM; in the experiment on NCI/ADR-RES ovarian, 10.5 µM; with HOP-62 NSCLC, 2.27 µM. The GI50 was 2.71 µM in the experiment on 786-0 renal, 1.51 µM with SF-539 CNS, 3 µM in the experiment on SK-MEL-5 melanoma and 2.37 µM in the experiment on OVCAR-5 ovarian. Further, the TGI with SR leukemia was more than 100 µM; in the experiment on RPMI-8226 leukemia it was 68 µM; in the experiment with SK-OV-3 ovarian, 9.12 µM; with CAKI-1 renal it was more than 100 µM; in the experiment on NCI/ADR-RES ovarian, more than 100 µM; in the experiment on HOP-62 NSCLC, 7.27 µM. The concentration for total growth inhibition (TGI) in the experiment with 786-0 renal is more than 100 µM; in the experiment on SF-539 CNS it was 3.7 µM; in the experiment with SK-MEL-5 melanoma it was 9.47 µM; in the experiment with OVCAR-5 ovarian, more than 100 µM.

As for `CCN=c1sc2c(n1NC(=O)c1cc3ccc1CCc1ccc(cc1)CC3)C(=O)c1ccccc1C2=O`, the GI50 in the experiment with SR leukemia is 0.815 µM; in the experiment with RPMI-8226 leukemia it was 0.769 µM; with SK-OV-3 ovarian, 4.49 µM; in the experiment with CAKI-1 renal it was 0.496 µM; with NCI/ADR-RES ovarian it was 0.814 µM; with HOP-62 NSCLC, 1.02 µM. For the same compound, the GI50 in the experiment on 786-0 renal was 0.727 µM; in the experiment with SF-539 CNS, 0.556 µM; in the experiment with SK-MEL-5 melanoma, 0.563 µM; with OVCAR-5 ovarian it was 0.587 µM. Besides, the TGI was 9.91 µM in the experiment with SR leukemia; 2.2 µM with RPMI-8226 leukemia; 8.95 µM with SK-OV-3 ovarian; 2.86 µM in the experiment with CAKI-1 renal; 2.39 µM in the experiment with NCI/ADR-RES ovarian; 2.76 µM with HOP-62 NSCLC. For the same compound, the TGI in the experiment with 786-0 renal turned out to be 1.62 µM; in the experiment with SF-539 CNS it was 1.04 µM; in the experiment with SK-MEL-5 melanoma it was 1.03 µM; in the experiment on OVCAR-5 ovarian, 1.15 µM.

As to `CCN1C(=S)N(CC)C2C1NC(=S)N2/N=C/C=C/c1ccccc1OC` (stereo not drawn), the GI50 was 0.0833 µM with SR leukemia; 0.377 µM in the experiment on RPMI-8226 leukemia; 0.505 µM with SK-OV-3 ovarian; 0.101 µM in the experiment with CAKI-1 renal; 0.237 µM in the experiment with NCI/ADR-RES ovarian; 0.453 µM in the experiment on HOP-62 NSCLC. Besides, the GI50 in the experiment on 786-0 renal is 0.67 µM; with SF-539 CNS, 0.194 µM; with SK-MEL-5 melanoma it was 0.137 µM; in the experiment with OVCAR-5 ovarian, 0.442 µM. The TGI in the experiment on RPMI-8226 leukemia is 7.08 µM; in the experiment with SK-OV-3 ovarian, more than 100 µM; in the experiment with CAKI-1 renal it was 45.9 µM; in the experiment on HOP-62 NSCLC, more than 100 µM; with 786-0 renal, more than 52.3 µM; with SF-539 CNS it was 0.541 µM. Moreover, the TGI in the experiment on SK-MEL-5 melanoma was determined as 3.53 µM; with OVCAR-5 ovarian, 35.6 µM.
